From US20240101548A1, “HYDROXAMATE COMPOUND, PREPARATION METHOD THEREFOR AND APPLICATION THEREOF” (SHENZHEN CHIPSCREEN BIOSCIENCES CO., LTD., priority 2020, published 2024) come the findings set out here.

Read-outs that look alike come from different tables or passages of the source. Some results are limits rather than exact numbers.

Common to all, as to assay type: cell-based, human
In assay [1] the test system is EPO-induced JAK2 signal pathway. Put plainly: EPO-induced proliferation of UT-7 cells (JAK2 signal). The settings on record: Homo sapiens, UT7; UT-7 cell proliferation, EPO 10 ng/mL, 72 hours; read-out: Inhibition activity IC50 on EPO-induced JAK2 signal pathway. A digest of the protocol:
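[…] was derived from inhibition rates across doses, scaled between wells lacking compound and cytokine (0) and EPO without compound (100), using alamarBlue fluorescence at Ex530/Em590. Compound (final 0-10000 nM) and 10 ng/mL EPO were given to UT-7 cells at 15000 per well for 72 h at 37° C.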

In assay [2] the test system is IL-2-induced JAK1/JAK3 signal pathway. As to the kind of experiment: IL-2-induced proliferation of KHYG-1 cells (JAK1/JAK3 signal). The settings on record: Homo sapiens; KHYG-1 cell proliferation, IL-2 10 ng/mL, 72 hours; read-out: Inhibition activity IC50 on IL-2-induced JAK1/JAK3 signal pathway. Put shortly:
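Controls were wells lacking both compound and cytokine (0%) and compound-free IL-2 wells (100%). C50 was calculated from inhibition rates across doses.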

The test system of assay [3] is IL-10-induced JAK1/TYK2 signal pathway. As to the kind of experiment: IL-10-induced JAK1/TYK2 signal pathway STAT3-Luc reporter gene assay in U2OS cells. The settings on record: Homo sapiens, U2OS cells, STAT3-Luc reporter, IL-10 10 ng/mL, read-out: Half inhibition dose (IC50) on IL-10-induced JAK1/TYK2 signal pathway. An excerpt: Cytokine IL-10 is one of the main members of IL-10 family. The receptor that cytokine IL-10 binds to consists of two kinds of subunits, i.e., IL-10R1 and IL-10R2, which respectively couple with JAK1 and TYK2. After the coupling of IL-10 with its receptor, interaction of phosphorylation occurs between JAK1 and TYK2 to form STAT3 docking site for phosphorylation of STAT3. The phosphorylated STAT3 enters the nucleus and drives the transcription and expression of downstream genes.
The reporter gene plasmid STAT3-Luc Reporter used in the present invention has luciferase expression sequence as the reporter gene, upstream of which is a promoter sequence containing multiple STAT3 binding sites. When phosphorylated STAT3 induced by IL-10 signal pathway binds to the promoter of STAT3-Luc Reporter plasmid, luciferase is transcribed and expressed. The excitation fluorescence catalyzed by Luciferase can be detected after the addition of […] substrate, whose intensity can quantitively reflect the activation level of the signal pathway.
Human osteosarcoma cell line U20S was commercially available from American Type Culture Collection (ATCC), and relevant culture conditions referred to those from ATCC. It was known that such cell line could express IL-10R2, JAK1, TYK2 and STAT3, therefore, by exogenous expression of IL-10R1 gene, a complete IL-10 signal pathway could be established. The human IL-10R1 subunit overexpression plasmid pCMV3-IL10RA-EGFP was constructed by Shanghai Genechem Co., Ltd., and capable of simultaneously expressing enhanced green fluorescent protein. In the subsequent detection and calculation, the signal of green fluorescent protein in the tested sample was used as a reference for transfection efficiency calibration of the luciferase reporter gene signal. Reporter plasmid STAT3-Luc Reporter was commercially available from Ji Man Biotech (Shanghai) Co., Ltd.
X-tremeGENE 9 DNA Transfection Reagent (Roche) was used for the transfection of plasmid DNA into cells, Cell Culture Lysis 5× reagent (Promega) and Luciferase Assay System (Promega) were used in cell lysate preparation and enzyme-substrate reaction for luciferase reporter gene detection. Green fluorescent protein signal and luciferase reporter gene signal were both detected by Tecan Spark™ 10M multimode microplate reader. The inhibition rate of the tested compound on the IL-10 signal pathway reporter gene signal and the half inhibition dose IC50 were both calculated using Microsoft Excel and GraphPad Prism 7.00 software.
U2OS cell line was inoculated in 96-well plate with flat bottom at 5000 cells per well, and cultured overnight at 37° C. and 5% CO2 followed by plasmid transfection. Following the instructions and using X-tremeGENE 9 DNA Transfection Reagent, pCMV3-IL10RA-EGFP and STAT3-Luc Reporter plasmids were co-transfected into the inoculated U2OS cells. After 24 hours of transfection, the tested compound was added respectively for a final concentration of 0, 0.1, 0.3, 1, 3, 10, 30, 100, or 300 nM. After 6 hours of culture at 37° C. and 5% CO2, IL-10 cytokine (Human IL-10 PEPROTECH 200-10-10UG) was added to each well for a final concentration of 10 ng/mL, the well in which neither compound nor cytokine was added was designated as 0% control well. The culture was continued for 24 hours before testing.
Cell lysate was prepared by using Cell Culture Lysis reagent and transferred to 96-well plate with half-well clear bottom. The green fluorescent protein signal value was detected at Ex485/Em520 using Tecan microplate reader, and recorded. After adding to each well the luciferase substrate from Luciferase Assay System, the signal value of luciferase-substrate reaction was immediately detected at 560 nm using Tecan microplate reader, and recorded.
Using Microsoft Excel software, the signal value of luciferase-substrate reaction of each well was calculated and calibrated based on the signal value of green fluorescent protein of each well. […]
Background: In a reporter assay the amount or activity of a reporter protein is the signal.

Turning to `CONC(=O)c1cnc(NC(=O)C2CC2)cc1Nc1ccccc1N(C)S(C)(=O)=O` [Example 2, 6-(cyclopropylcarboxamido)-N-methoxy-4-((2-(N-methylmethanesulfonamido)phenyl)amino)nicotinamide], the IC50 was over 10000 nM in assay [1], over 10000 nM in assay [2] and 1.58 nM in assay [3] (U2OS).
Regarding `CONC(=O)c1cnc(Nc2ccc(F)cn2)cc1Nc1ccccc1N(C)S(C)(=O)=O` [Example 4, 6-((5-fluoropyridin-2-yl)amino)-N-methoxy-4-((2-(N-methylmethanesulfonamido)phenyl)amino)nicotinamide], the IC50 in assay [1] was over 10000 nM; in assay [2], over 10000 nM; in assay [3] (U2OS) it was 0.705 nM.
Take `CONC(=O)c1cnc(NC(=O)C2CC2)cc1Nc1ccc(C(F)(F)F)cc1N(C)S(C)(=O)=O` [Example 10, 6-(cyclopropylcarboxamido)-N-methoxy-4-((2-(N-methylmethanesulfonamido)-4-(trifluoromethyl)phenyl)amino)nicotinamide]: the IC50 was over 10000 nM in assay [1], over 10000 nM in assay [2] and 1.18 nM in assay [3].
With `CONC(=O)c1cnc(NC(=O)C2CC2)cc1Nc1ccc(C2CC2)cc1N(C)S(C)(=O)=O` [Example 12, 6-(cyclopropylcarboxamido)-4-((4-cyclopropyl-2-(N-methylmethanesulfonamido)phenyl)amino)-N-methoxy nicotinamide], the IC50 in assay [1] was over 10000 nM; in assay [2], over 10000 nM; in assay [3], 0.961 nM.
Turning to `CONC(=O)c1cnc(Nc2ccc(F)cn2)cc1Nc1ccc(C2CC2)cc1N(C)S(C)(=O)=O` [Example 13, 4-((4-cyclopropyl-2-(N-methylmethanesulfonamido)phenyl)amino)-6-((5-fluoropyridin-2-yl)amino)-N-methoxy nicotinamide], the IC50 in assay [1] is over 10000 nM; in assay [2], over 10000 nM; in assay [3] (U2OS) it was 1.1 nM.
For `CONC(=O)c1cnc(Nc2cccc(F)n2)cc1Nc1ccc(C2CC2)cc1N(C)S(C)(=O)=O` [Example 14, 4-((4-cyclopropyl-2-(N-methylmethanesulfonamido)phenyl)amino)-6-((6-fluoropyridin-2-yl)amino)-N-methoxy nicotinamide], the IC50 in assay [1] is over 10000 nM; in assay [2], over 10000 nM; in assay [3] (U2OS), 0.874 nM.
As to `CONC(=O)c1cnc(Nc2ccc(OC)cn2)cc1Nc1ccc(C2CC2)cc1N(C)S(C)(=O)=O` [Example 16, 4-((4-cyclopropyl-2-(N-methylmethanesulfonamido)phenyl)amino)-N-methoxy-6-((5-methoxypyridin-2-yl)amino)nicotinamide], the values for the IC50 in assay [1], in assay [2] and in assay [3] (U2OS) were over 10000 nM, over 10000 nM and 1.27 nM, respectively.
Take `C#Cc1ccc(Nc2cc(Nc3ccc(OC)cn3)ncc2C(=O)NOC)c(N(C)S(C)(=O)=O)c1` [Example 18, 4-((4-ethynyl-2-(N-methylmethanesulfonamido)phenyl)amino)-N-methoxy-6-((5-methoxypyridin-2-yl)amino)nicotinamide]: the IC50 in assay [1] is over 10000 nM; in assay [2], over 10000 nM; in assay [3], 0.784 nM.
`C#Cc1ccc(Nc2cc(Nc3cccc(F)n3)ncc2C(=O)NOC)c(N(C)S(C)(=O)=O)c1` [Example 19]: the IC50 in assay [1] was over 10000 nM; in assay [2] it was over 10000 nM; in assay [3] (U2OS), 1.06 nM.
On to `CCONC(=O)c1cnc(Nc2ccc(OC)cn2)cc1Nc1ccc(C2CC2)cc1N(C)S(C)(=O)=O` [Example 20, 4-((4-cyclopropyl-2-(N-methylmethanesulfonamido)phenyl)amino)-N-ethoxy-6-((5-methoxypyridin-2-yl)amino)nicotinamide], for which the IC50 is over 10000 nM in assay [1], over 10000 nM in assay [2] and 0.955 nM in assay [3] (U2OS).
In the case of `CCONC(=O)c1cnc(Nc2cccc(F)n2)cc1Nc1ccc(C2CC2)cc1N(C)S(C)(=O)=O` [Example 22, 4-((4-cyclopropyl-2-(N-methylmethanesulfonamido)phenyl)amino)-N-ethoxy-6-((6-fluoropyridin-2-yl)amino)nicotinamide], the IC50 is over 10000 nM in assay [1], over 10000 nM in assay [2] and 0.57 nM in assay [3] (U2OS).
Consider `CONC(=O)c1cnc(NC(=O)C2CC2)cc1Nc1cccc(-c2ccn(C)n2)c1OC` [Example 29, 6-(cyclopropylcarboxamido)-N-methoxy-4-((2-methoxy-3-(1-methyl-1H-pyrazol-3-yl)phenyl)amino)nicotinamide], for which the IC50 in assay [1] is over 10000 nM; in assay [2] it was over 10000 nM; in assay [3] (U2OS), 2.33 nM.
As for `CONC(=O)c1cnc(Nc2cccc(F)n2)cc1Nc1cccnc1N(C)S(C)(=O)=O` [Example 36, 6-((6-fluoropyridin-2-yl)amino)-N-methoxy-4-((2-(N-methylmethanesulfonamido)pyridin-3-yl)amino)nicotinamide], the figures for the IC50 in assay [1], in assay [2] and in assay [3] (U2OS) were over 10000 nM, over 10000 nM and 0.686 nM, respectively.
In the case of `CONC(=O)c1cnc(Nc2cccc(F)n2)cc1Nc1cccc(F)c1N(C)S(C)(=O)=O` [Example 38, 4-((3-fluoro-2-(N-methylmethanesulfonamido)phenyl)amino)-6-((6-fluoropyridin-2-yl)amino)-N-methoxy nicotinamide], the IC50 in assay [1] was over 10000 nM; in assay [2], over 10000 nM; in assay [3] (U2OS), 0.506 nM.
Regarding `CONC(=O)c1cnc(NC(=O)C2CC2)cc1Nc1cccc(-n2cccn2)c1OC` [Example 41, 6-(cyclopropylcarboxamido)-N-methoxy-4-((2-methoxy-3-(1H-pyrazol-1-yl)phenyl)amino)nicotinamide], the IC50 is over 10000 nM in assay [1], over 10000 nM in assay [2] and 1.7 nM in assay [3].
Take `CONC(=O)c1cnc(Nc2cccc(F)n2)cc1Nc1cccc(-n2cccn2)c1OC` [Example 42, 6-((6-fluoropyridin-2-yl)amino)-N-methoxy-4-((2-methoxy-3-(1H-pyrazol-1-yl)phenyl)amino)nicotinamide]: the IC50 was over 10000 nM in assay [1], over 10000 nM in assay [2] and 1.51 nM in assay [3] (U2OS).
For the molecule `CONC(=O)c1cnc(Nc2ccc(C#N)cn2)cc1Nc1ccccc1N(C)S(C)(=O)=O` [Example 43, 6-((5-cyanopyridin-2-yl)amino)-N-methoxy-4-((2-(N-methylmethanesulfonamido)phenyl)amino)nicotinamide], the figures for the IC50 in assay [1], in assay [2] and in assay [3] (U2OS) were over 10000 nM, over 10000 nM and 1.18 nM, respectively.
Take `[2H]C([2H])([2H])NC(=O)c1cnc(Nc2ccccn2)cc1Nc1cccc(-c2ncc(F)cn2)c1OC` [Example 253, 4-((3-(5-fluoropyrimidin-2-yl)-2-methoxyphenyl)amino)-N-(methyl-d3)-6-(pyridin-2-ylamino)nicotinamide, reference compound]: the IC50 in assay [3] (U2OS) was 9.75 nM.
